Key:
[1] = Body weight of rabbits injected with peptide/carrier conjugate; type: in vivo; conditions: female rabbits, peptide coupled to keyhole limpet hemocyanin, 50 μg of peptide subcutaneously, repeated at two weeks then approximately monthly; P1 and P3 pooled (five rabbits)
Experimental: These peptides were then coupled chemically to keyhole limpet hemocyanin, a carrier protein, to improve the immunogenicity in rabbits.
Each peptide/carrier conjugate (50 μg of peptide, approximately 30 nanomoles) was injected subcutaneously into three female rabbits (three groups of three rabbits, approximately 2 months old). Two weeks later the rabbits were injected again with the same amounts of peptide/carrier conjugate. Thereafter, each rabbit was injected with the conjugate at approximately monthly intervals and blood samples were drawn. After five months, the rabbits were sacrificed.
Before the first injection, the rabbits were weighed for calculation of anesthetic dose (used to sedate the rabbits during injection). Before the rabbits were sacrificed, they were weighed again as the rabbits which received P2 were quite obese compared to all other rabbits. The average weight of the five injected with peptides P1 and P3 was 4.4 kg. This is normal for adult female rabbits of this type at this age, i.e. the average weight expected at 6 months is 4.5 kg. However, the weights of the rabbits injected with peptide P2 averaged 5.2 kg, approximately 20% higher.

[2] = Weight gain of mice injected with free peptide; type: in vivo, mice (BALB/c strain); conditions: BALB/c mice, free peptide 2.5 μg subcutaneously once per week, 85 days, five mice per group
Experimental: In order to obtain statistically significant data on the effects of peptide P2 on weight gain, another series of experiments using mice were performed. Three groups of five mice (BALB/c strain) were used. The first group received injections of peptide P2, a second group received injections of P3 (as control), and a third group received injections of saline (as control). Free peptides were used to avoid the possibility that the effect observed in Example 1 may have been due to the nature of the chemical coupling to the carrier protein. Each mouse (weighing approximately 15 grams) received an injection of 2.5 μg (1.5 nanomoles) of peptide or saline injected subcutaneously. The mice were weighed three times per week and injected once per week with another 2.5 μg of peptide or saline. After 85 days the mice were sacrificed.

Substance: KRPLQAEEQALSMDF [P1]
- average weight of the rabbits at the end of five months [1]: 4.4 kg

Substance: P3: amino-terminal cytochrome b 561 sequence Ser(21) - Tyr(37), cysteine added at amino-terminus, two lysine residues at carboxy-terminus (CSMEGPASPARAPGALPYKK)
- average weight of the rabbits at the end of five months [1]: 4.4 kg
- effect on weight gain [2]: not different than the P3 control group
